In assay [1] the target is T1, alpha2A adrenergic receptor (Homo sapiens, UniProt P08913).
T1 sequence (P08913 1-465): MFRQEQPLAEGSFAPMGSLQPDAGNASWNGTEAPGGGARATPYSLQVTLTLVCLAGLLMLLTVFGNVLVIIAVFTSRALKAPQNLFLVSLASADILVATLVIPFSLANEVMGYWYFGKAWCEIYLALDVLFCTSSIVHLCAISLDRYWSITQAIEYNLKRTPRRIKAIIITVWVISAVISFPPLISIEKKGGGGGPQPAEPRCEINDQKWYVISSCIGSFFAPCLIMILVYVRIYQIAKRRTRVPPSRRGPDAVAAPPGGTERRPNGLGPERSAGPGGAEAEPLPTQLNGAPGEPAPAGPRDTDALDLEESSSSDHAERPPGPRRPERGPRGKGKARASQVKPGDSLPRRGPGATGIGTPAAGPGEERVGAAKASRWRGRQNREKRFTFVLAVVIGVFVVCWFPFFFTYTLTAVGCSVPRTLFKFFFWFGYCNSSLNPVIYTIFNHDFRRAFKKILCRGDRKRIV
Put plainly: Receptor Selection and Amplification Technology (RSAT) assay, alpha2A. Particulars: NIH-3T3 cells, agonism, read-out: EC50, Alpha 2A. The format is cell-based. The text has this:
(§1) The imidazole-2-thione compounds of the invention are agonists of alpha2 adrenergic receptors, particularly they tend to be specific or selective agonists of alpha2B and/or to a lesser extent alpha2C adrenergic receptors, in preference over alpha2A adrenergic receptors. […] Al., 1995, Pharmacol. Toxicol. 76, pp. 308-311 (incorporated herein by reference) and is also described below. Another reference pertinent to this assay is Conklin et al. (1993) Nature 363:274-6, also incorporated herein by reference.
(§2) Receptor Selection and Amplification Technology (RSAT) Assay
(§3) The RSAT assay measures a receptor-mediated loss of contact inhibition that results in selective proliferation of receptor-containing cells in a mixed population of confluent cells. The increase in cell number is assessed with an appropriate transfected marker gene such as β-galactosidase, the activity of which can be easily measured in a 96-well format. […]
(§4) NIH-3T3 cells are plated at a density of 2×10^6 cells in 15 cm dishes and maintained in Dulbecco's modified Eagle's medium supplemented with 10% calf serum. […] After washing with phosphate-buffered saline, β-galactosidase enzyme activity is determined by adding 200 μl of the chromogenic substrate (consisting of 3.5 mM o-nitrophenyl-β-D-galactopyranoside and 0.5% nonidet P-40 in phosphate buffered saline), incubating overnight at 30° C. and measuring optical density at 420 nm. […]

The target in assay [2] is T2, alpha2C adrenergic receptor (Homo sapiens, UniProt P18825).
T2 construct: expressed in transfected cells; host or cells: NIH-3T3
T2 sequence (P18825 1-462): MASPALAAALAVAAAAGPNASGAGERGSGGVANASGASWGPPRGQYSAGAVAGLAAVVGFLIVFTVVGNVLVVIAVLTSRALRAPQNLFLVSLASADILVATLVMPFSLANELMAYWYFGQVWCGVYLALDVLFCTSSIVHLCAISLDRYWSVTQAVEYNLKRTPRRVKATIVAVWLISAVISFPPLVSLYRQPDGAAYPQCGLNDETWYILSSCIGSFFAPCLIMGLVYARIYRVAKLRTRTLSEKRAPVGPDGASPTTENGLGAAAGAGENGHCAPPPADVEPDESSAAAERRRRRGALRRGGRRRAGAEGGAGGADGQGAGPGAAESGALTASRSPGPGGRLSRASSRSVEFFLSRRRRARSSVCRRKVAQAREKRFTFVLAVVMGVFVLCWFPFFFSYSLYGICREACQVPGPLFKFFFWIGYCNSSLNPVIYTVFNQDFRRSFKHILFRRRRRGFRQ
Kind of assay: Receptor Selection and Amplification Technology (RSAT) assay, alpha2C. In kind it is cell-based. Particulars: NIH-3T3 cells, agonism, read-out: EC50, Alpha 2C.
Description: as §1, §2, §3, §4

The subject of assay [3] is rats with surgical ligation of L5 and L6 spinal nerves (tactile allodynia). Kind of assay: Chung model of neuropathic pain (tactile allodynia, von Frey hairs). In kind it is in vivo, rat. The conditions noted are these: 30 min after dosing. The text has this:
Alleviation of Chronic Pain
A model in accordance with Kim and Chung 1992, Pain […], pp 355-363 (Chung model), for chronic pain (in particular peripheral neuropathy) involves the surgical ligation of the L5 (and optionally the L6) spinal nerves on one side in experimental animals. Rats recovering from the surgery gain weight and display a level of general activity similar to that of normal rats. However, these rats develop abnormalities of the foot, wherein the hindpaw is moderately everted and the toes are held together. More importantly, the hindpaw on the side affected by the surgery appears to become sensitive to pain from low-threshold mechanical stimuli, such as that producing a faint sensation of touch in a human, within about 1 week following surgery. This sensitivity to normally non-painful touch is called “tactile allodynia” and lasts for at least two months. The response includes lifting the affected hindpaw to escape from the stimulus, licking the paw and holding it in the air for many seconds. None of these responses is normally seen in the control group.
Rats are anesthetized before surgery. The surgical site is shaved and prepared either with betadine or Novacaine. Incision is made from the thoracic vertebra X111 down toward the sacrum. Muscle tissue is separated from the spinal vertebra (left side) at the L4-S2 levels. The L6 vertebra is located and the transverse process is carefully removed with a small rongeur to expose the L4-L6 spinal nerves. The L5 and L6 spinal nerves are isolated and tightly ligated with 6-0 silk thread. The same procedure is done on the right side as a control, except no ligation of the spinal nerves is performed.
A complete hemostasis is confirmed, then the wounds are sutured. A small amount of antibiotic ointment is applied to the incised area, and the rat is transferred to the recovery plastic cage under a regulated heat-temperature lamp. On the day of the experiment, at least seven days after the surgery, typically six rats per test group are administered the test drugs by intraperitoneal (i.p.) injection or oral gavage. For i.p. injection, the compounds are formulated in approximately 10 to 50% DMSO and given in a volume of 1 ml/kg body weight.
Tactile allodynia is measured prior to and 30 minutes after drug administration using von Frey hairs that are a series of fine hairs with incremental differences in stiffness. Rats are placed in a plastic cage with a wire mesh bottom and allowed to acclimate for approximately 30 minutes. The von Frey hairs are applied perpendicularly through the mesh to the mid-plantar region of the rats' hindpaw with sufficient force to cause slight buckling and held for 6-8 seconds. The applied force has been calculated to range from 0.41 to 15.1 grams. If the paw is sharply withdrawn, it is considered a positive response. A normal animal will not respond to stimuli in this range, but a surgically ligated paw will be withdrawn in response to a 1-2 gram hair. The 50% paw withdrawal threshold is determined using the method of Dixon, W. J., Ann. Rev. Pharmacol. Toxicol. 20:441-462 (1980). The post-drug threshold is compared to the pre-drug threshold and the percent reversal of tactile sensitivity is calculated based on a normal threshold of 15.1 grams. The results are expressed in percent (%) MPE, where the MPE value reflects the percentage reversal of pain threshold to that of a normal animal (100%). Table 3 below indicates results of this test with Compounds 1, 7 and 29 of the invention, administered i.p. and in oral doses.

The target in assay [4] is T3, alpha2B adrenergic receptor (Homo sapiens, UniProt P18089).
T3 construct: expressed in transfected cells; host or cells: NIH-3T3
T3 sequence (P18089 1-450): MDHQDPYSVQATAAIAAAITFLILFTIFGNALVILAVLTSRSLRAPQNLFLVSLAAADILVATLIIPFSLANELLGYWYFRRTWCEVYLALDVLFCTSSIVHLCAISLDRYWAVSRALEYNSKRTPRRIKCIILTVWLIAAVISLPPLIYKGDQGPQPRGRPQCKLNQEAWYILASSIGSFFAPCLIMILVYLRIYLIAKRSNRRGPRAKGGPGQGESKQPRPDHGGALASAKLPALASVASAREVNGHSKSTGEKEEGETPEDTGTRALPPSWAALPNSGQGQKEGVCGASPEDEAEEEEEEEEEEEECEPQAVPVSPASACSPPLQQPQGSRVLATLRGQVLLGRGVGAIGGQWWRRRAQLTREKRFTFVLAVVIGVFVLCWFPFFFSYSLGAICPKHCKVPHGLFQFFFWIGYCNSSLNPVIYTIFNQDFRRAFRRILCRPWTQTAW
Kind of assay: Receptor Selection and Amplification Technology (RSAT) assay, alpha2B. Particulars: for EC50: RSAT, NIH-3T3 cells, agonism, read-out: EC50, Alpha 2B; for Emax: fraction of maximal effect of standard agonist brimonidine, read-out: intrinsic activity, Alpha 2B. The format is cell-based.
Description: as §1, §2
The RSAT assay measures a receptor-mediated loss of contact inhibition that results in selective proliferation of receptor-containing cells in a mixed population of confluent cells. The increase in cell number is assessed with an appropriate transfected marker gene such as β-galactosidase, the activity of which can be easily measured in a 96-well format. Receptors that activate the G protein, Gq, elicit this response. Alpha2 receptors, which normally couple to Gi, activate the RSAT response when coexpressed with a hybrid Gq protein that has a Gi receptor recognition domain, called Gq/i5.
NIH-3T3 cells are plated at a density of 2×10^6 cells in 15 cm dishes and maintained in Dulbecco's modified Eagle's medium supplemented with 10% calf serum. One day later, cells are cotransfected by calcium phosphate precipitation with mammalian expression plasmids encoding p-SV-β-galactosidase (5-10 μg), receptor (1-2 μg) and G protein (1-2 μg). 40 μg salmon sperm DNA may also be included in the transfection mixture. Fresh media is added on the following day and 1-2 days later, cells are harvested and frozen in 50 assay aliquots. Cells are thawed and 100 μl added to 100 μl aliquots of various concentrations of drugs in triplicate in 96-well dishes. Incubations continue 72-96 hr at 37° C. After washing with phosphate-buffered saline, β-galactosidase enzyme activity is determined by adding 200 μl of the chromogenic substrate (consisting of 3.5 mM o-nitrophenyl-β-D-galactopyranoside and 0.5% nonidet P-40 in phosphate buffered saline), incubating overnight at 30° C. and measuring optical density at 420 nm. The absorbance is a measure of enzyme activity, which depends on cell number and reflects a receptor-mediated cell proliferation. The EC50 and maximal effect of each drug at each alpha2 receptor is determined. The efficacy or intrinsic activity is calculated as a ratio of the maximal effect of the drug to the maximal effect of a standard full agonist for each receptor subtype. Brimonidine, also called UK14304, the chemical structure of which is shown below, is used as the standard agonist for the alpha2A, alpha2B and alpha2C receptors. […]

As usually defined, the EC50 is the concentration needed to bring the measured effect to its halfway point.

SMILES strings stand for the structures.

Turning to `Cc1ccc2c(n1)CC(Cc1c[nH]c(=S)[nH]1)CC2` (racemic) [Compound 201, 4-(2-methyl-5,6,7,8-tetrahydro-quinolin-7-ylmethyl)-1,3-dihydro-imidazole-2-thione], the results for the EC50 in assay [1], in assay [2] and in assay [4] were greater than 10 µM, greater than 10 µM and 0.113 µM, respectively. Further, the “% Pain Reversal ± SEM” value in assay [3] (10 μg/kg i.p.) worked out at 0.65 ± 0.91%; in assay [3] (30 μg/kg i.p.), 42 ± 5.7%; in assay [3] (100 μg/kg i.p.), 75.1 ± 5.7%; in assay [3] (100 μg/kg p.o.), 64 ± 7%; in assay [3] (300 μg/kg i.p.) it was 82.5 ± 7.4%. The Emax in assay [4] was 104%.

Turning to `Cc1ccc2c(n1)CC(Cc1c[nH]c(=S)[nH]1)CC2` (single isomer, unassigned) [Compound 202, 4-(2-methyl-5,6,7,8-tetrahydro-quinolin-7-ylmethyl)-1,3-dihydro-imidazole-2-thione], the concentration giving a half-maximal response (EC50) in assay [1] was greater than 10 µM; in assay [2], greater than 10 µM; in assay [4], 0.092 µM. The “% Pain Reversal ± SEM” value in assay [3] (30 μg/kg p.o.) is 28 ± 8.5%; in assay [3] (100 μg/kg p.o.) it was 49 ± 7.2%; in assay [3] (300 μg/kg p.o.), 75 ± 8.1%. Moreover, the Emax in assay [4] turned out to be 99%.

The record behind these values is US7276522B2, “4-(substituted cycloalkylmethyl) imidazole-2-thiones, 4-(substituted cycloalkenylmethyl) imidazole-2-thiones, 4-(substituted cycloalkylmethyl) imidazol-2-ones, 4-(substituted cycloalkenylmethyl) imidazol-2-ones and related compounds” (Allergan, Inc., priority 2002, dated 2007).
